Reference: patent US20080113016A1, “Method for Prevention or Treatment of Inflammatory Disease” (priority 2004, published 2008)
Entries after “also recorded” stand apart in the source; their conditions may differ. Read-outs that look alike come from different tables or passages of the source. Marks after values point to notes of the source that are not given here.

Tests used:
[1] = system: rats with adjuvant arthritis; test: Adjuvant arthritis: behavioral pain (vocalization to 24 gm ankle pressure); assay type: in vivo, rat; conditions: 24 gm bending force to lateral ankle for 4 s on day 20
From the text: The effect of IT SB203580 on the clinical manifestations of adjuvant arthritis was examined. […] Paw swelling was inversely correlated with behavioral analysis as determined by weight bearing in hind limbs.
(§1) Intrathecal (IT) catherization of rats. All animals were handled in accordance with USDA guidelines, and all procedures have been carefully reviewed and approved by the institutional animal subjects committee. Rats (200-300 g) were housed for at least one week before use. Isoflurane anesthesia was used for all surgical procedures. Animals were implanted with an intrathecal (IT) catheter modified from the method previously described. Yaksh, et al. Physiol. Behav. 17:1031-6, 1976. After a six day recovery period, all animals except those that appeared to have sensory or motor abnormalities (less than 5% of the total number) were used for experiments. For IT administration, 10 μl of drug or vehicle followed by 10 μl of isotonic saline was injected through the catheter.
Adjuvant arthritis. Male Lewis rats (150-200 g) were immunized at the base of the tail with 0.1 ml of complete Freund's adjuvant (CFA) on day 0. […] Clinical signs of arthritis generally begin on day 10, and paw swelling was determined every second day by water displacement plethysmometry. […] Prior to daily drug delivery, rats were individually assessed for ability to walk and bear weight on their hind paws. […]

[2] = system: rats with adjuvant arthritis; test: Adjuvant arthritis: paw swelling by water displacement plethysmometry; assay type: in vivo, rat
Description: […] Paw swelling was measured by water displacement plethysmometry.
as §1
(§2) Adjuvant arthritis. Male Lewis rats (150-200 g) were immunized at the base of the tail with 0.1 ml of complete Freund's adjuvant (CFA) on day 0. […] Clinical signs of arthritis generally begin on day 10, and paw swelling was determined every second day by water displacement plethysmometry. […] Prior to daily drug delivery, rats were individually assessed for ability to walk and bear weight on their hind paws. On the day of sacrifice, a probe with a 24 gm bending force was applied to the lateral ankle of each hind paw for 4 s. Animals were graded (0/1) on whether they vocalized. Roentgenograms were obtained of the hind paws to assess bone changes using a semi-quantitative scoring system (demineralization (0 to 2+), ankle and mid-foot erosions (0 to 2+), calcaneal erosion (0 to 1+), heterotopic bone formation (0 to 1+) (maximum possible score=6). Paws were fixed in formalin and decalcified for 2-3 days. Sections from paraffin embedded tissue were stained with hematoxylin and eosin. A synovial inflammation score was determined using a semi-quantitative scale that measures synovial inflammation (0-2+), cartilage integrity (0-2+), bone erosions (0-2+), marrow infiltration (0-2+), proteoglycans loss (0-2+ in safranin 0 stained sections) and extra-articular inflammation (0-2+) (maximum score 12). Subjective assessments were made by an investigator blinded to the drug treatment.

[3] = system: rats with adjuvant arthritis; test: Adjuvant arthritis: histologic joint damage, semiquantitative score; assay type: in vivo, rat
Description: Rats were immunized with CFA on day 0 and treated daily with intrathecal SB203580 (8 μg) or intrathecal saline beginning on day 8-20. Left panel is vehicle and right panel is SB203580. […] Representative sections are shown illustrating decreased erosions, cartilage damage and synovial inflammation in the treated group.
Adjuvant arthritis. Male Lewis rats (150-200 g) were immunized at the base of the tail with 0.1 ml of complete Freund's adjuvant (CFA) on day 0. Drug (IT or subcutaneous SB203580 or IT vehicle) treatment started on day 8 and continued on a daily basis until day 20. Clinical signs of arthritis generally begin on day 10, and paw swelling was determined every second day by water displacement plethysmometry. […] Prior to daily drug delivery, rats were individually assessed for ability to walk and bear weight on their hind paws. On the day of sacrifice, a probe with a 24 gm bending force was applied to the lateral ankle of each hind paw for 4 s. Animals were graded (0/1) on whether they vocalized. […]

[4] = system: rats with adjuvant arthritis; test: Adjuvant arthritis: radiographic joint damage, semiquantitative score; assay type: in vivo, rat
Description: as §2

[5] = system: synovial IL-1, IL-6 and MMP3 gene expression; test: Adjuvant arthritis: joint gene expression by quantitative real time PCR; assay type: in vivo, rat; conditions: intrathecal 8 μg daily day 8-20 vs IT saline, hind paws
Description: Rats were immunized with CFA on day 0 and treated daily with intrathecal SB203580 (8 μg) or intrathecal saline beginning on day 8-20. (A) Quantitative real time PCR was performed on the hind paws. Normal rat joints are also shown as a control.
Q-PCR. Ankle joints were excised and trimmed of skin. The tissue was then pulverized and RNA extracted using RNA-STAT-60 and standard techniques. The RNA was reversed transcribed into cDNA using random hexamer primers. TaqMan PCR amplification reactions were carried out in reaction volumes of 25 μl in MicroAmp Optical Plates and MicroAmp Optical Caps using the TaqMan Universal Master Mix with a Perkin Elmer 5700 thermal cycler. Each sample was analyzed in triplicate using 50 ng of cDNA in the reaction. Thermal cycling was initiated with a 2 min incubation at 50° C., followed by 10 min at 95° C. to activate the AmpliTaq polymerase and then 40 cycles of 95° C. for 15 s/60° C. for 1 min. GADPH was used as a loading control for in each sample. The standard curve method was used for quantification as previously described. Boyle, et al. Arthritis Res. Ther. 5:R352-360, 2003.

spinal nerve ligation = conditions: administered intrathecally before spinal nerve ligation, cited from earlier work
[6] = intrathecal etanercept 100 or 300 μg q.o.d.

| Compound | Positive vocalization (animals that vocalize / total number) ([1]; intrathecal (IT) SB203580 8 μg daily day 8-20) | Positive vocalization (animals that vocalize / total number) ([1]; subcutaneous (SC) SB203580 8 μg daily day 8-20) | Paw swelling ([2]; intrathecal 8 μg daily day 8-20, compared with IT saline or same dose subcutaneously) | Effect in adjuvant arthritis (paw swelling, synovial infiltration, joint destruction) ([2]; same dose (8 μg) delivered systemically (subcutaneous)) | Histologic joint damage and inflammation (semiquantitative score) ([3]; intrathecal 8 μg daily day 8-20 vs IT saline) | Leukocyte infiltration into synovium ([3]; intrathecal catheter administration) | Radiographic joint damage (bone erosions, cartilage loss, demineralization) ([4]; intrathecal 8 μg daily day 8-20, p<0.05) | Radiographic joint damage ([4]; systemic (subcutaneous) treatment, same dose 8 μg) | Synovial IL-1 gene expression [5] | Synovial IL-6 gene expression [5] | MMP3 gene expression ([5]; p<0.05) | Paw swelling [2, 6] | Paw swelling ([2]; subcutaneous 50 μg every other day from day 1, day 20) | Paw swelling ([2]; subcutaneous 100 μg every other day from day 1, day 20) | Paw swelling ([2]; subcutaneous 300 μg every other day from day 1, day 20) | Paw swelling on day 20 ([2]; systemic treatment with the same doses as intrathecal) | Radiographic evidence of joint destruction [4, 6] | Allodynia (spinal nerve ligation) | Increase in spinal cord P-p38 / p38 activation (spinal nerve ligation) | Increase in spinal cord P-p38 / p38 activation (spinal nerve ligation; listed as etanercept) |
| --- | --- | --- | --- | --- | --- | --- | --- | --- | --- | --- | --- | --- | --- | --- | --- | --- | --- | --- | --- | --- |
| C[S+]([O-])c1ccc(-c2nc(-c3ccncc3)c(-c3ccc(F)cc3)[nH]2)cc1 (centres unmarked) [SB203580] | 0/6** | 4/6 | significantly decreased; also recorded: markedly suppressed | no effect | significantly decreased | decreased | significantly decreased | no effect | significantly decreased | significantly decreased | significantly decreased | – | – | – | – | – | – | – | – | – |
| Etanercept | – | – | – | – | – | – | – | – | – | – | – | significantly decreased | 1.51 ± 0.20 mL | 1.75 ± 0.18 mL | 1.67 ± 0.16 mL | no effect | significantly decreased | inhibits | blocks | inhibits |
